Test results published in patent publication US9981988B2, “Polymorphic forms and co-crystals of a c-Met inhibitor” (AMGEN, INC., priority 2014, dated 2018).

Assays:
Format in all cases: physicochemical
[1] = Dynamic vapor sorption / moisture sorption
Method: Moisture sorption data was collected using a Surface Measurement Systems DVS-Advantage instrument. Equilibrium criteria were set at ±0.002% weight change in 5 minutes with a maximum equilibrium time of 360 minutes.

[2] = Equilibrium solubility in water and aqueous media; settings: water, 22.5 °C, thermodynamic from solid
[3] = Equilibrium solubility in water and aqueous media; settings: 22.5 °C, thermodynamic from solid
Method: In all studies, excess solid of the compound was allowed to equilibrate at a temperature in the range of about 20 to 25° C. for 12-48 hours while stirring.

[4] = Solubility in organic solvents; settings: 20 °C, thermodynamic from solid, 20 to 25° C., at least 12 hours
Method: In all studies, excess solid of the compound was allowed to equilibrate for at least 12 hours while stirring.

[5] = Photostability of solid powder (1×ICH dose UV and visible light), HPLC; settings: for degradation: 1×ICH dose, clear glass vials
Method: (§1) High performance liquid chromatography (HPLC) analyses were performed on an Agilent 1100 or 1200 series HPLC equipped with a binary pump, diode-array detector, thermostated column compartment, and auto sampler. Separation and elution was achieved using a reverse-phase column and 0.1% triflouroacetic acid/water/acetonitrile mobile phase.
As shown in the table below minimal degradation, 0.4% and 0.2%, was detected in samples in clear glass vials under UV and visible light, respectively.

[6] = Solid state stability under accelerated stability testing conditions, HPLC
Method: as §1
Solid samples of the free base monohydrate form of Compound M were placed under accelerated stability testing conditions (25° C./60% RH, 40° C./75% RH and 60° C./ambient RH) for 12 weeks.

[7] = Visible (1200 klux × h), Amber vial
[8] = Visible (1200 klux × h), Clear vial

Compound: COCCOc1cnc2ccn([C@H](C)c3nnc4c(F)cc(-c5cnn(C)c5)cn34)c(=O)c2c1 [free base monohydrate form of Compound M, 6-{(1R)-1-[8-fluoro-6-(1-methyl-1H-pyrazol-4-yl)[1,2,4]triazolo[4,3-a]pyridin-3-yl]ethyl}-3-(2-methoxyethoxy)-1,6-naphthyridin-5(6H)-one]
- total weight gain ([1]; between about 40% and about 90% relative humidity): about 0.2 wt. %
- hygroscopicity ([1]; dynamic vapor sorption): non-hygroscopic
- solubility at 138 h ([2]; pH 4.09, water, Sample 2, duration 138 h, isolation method 1, pH 4.09, about 20 to 25° C.): 259 µg/mL
- solubility at 69 h ([2]; pH 6.85, water, Sample 3, duration 69 h, isolation method 2, pH 6.85, about 20 to 25° C.): 262 µg/mL
- solubility ([3]; 0.01N HCl, pH 1.9, simulated gastric fluid, 0.01N HCl, pH 1.9, 20 to 25° C., 12-48 hours, read-out: Solubility): 350 µg/mL
- solubility ([3]; FaSIF, pH 6.8, fassif, FaSIF, pH 6.8, 20 to 25° C., 12-48 hours, read-out: Solubility): 440 µg/mL
- solubility ([3]; PBS, pH 6.9, aqueous buffer, PBS, pH 6.9, 20 to 25° C., 12-48 hours, read-out: Solubility): 180 µg/mL
- solubility ([3]; SGF, pH 2.1, aqueous with cosolvent or surfactant or cyclodextrin, SGF (0.25% (w/v) SDS 0.2% (w/v) NaCl in 0.01N HCl), pH 2.1, 20 to 25° C., 12-48 hours, read-out: Solubility): 1440 µg/mL
- solubility ([3]; aqueous medium, pH adjusted with HCl, pH 0.73, aqueous buffer, pH 0.73 (adjusted with HCl), read-out: solubility): 9740 µg/mL
- solubility ([3]; aqueous medium, pH adjusted with methane sulfonic acid, pH 0.8, aqueous buffer, pH 0.80 (adjusted with methane sulfonic acid), read-out: solubility): 12400 µg/mL
- solubility at 40 h ([3]; water, pH 4.7, water, Sample 1, duration 40 h, isolation method 1, pH 4.70, about 20 to 25° C.): 253 µg/mL
- solubility ([3]; water, water, water, pH about 4 to about 7, about 20° C. to about 25° C., read-out: aqueous solubility): 260 µg/mL
- solubility ([4]; aqueous with cosolvent or surfactant or cyclodextrin, 25% Dimethyl sulfoxide in water, solid form: monohydrate): 590 µg/mL
- solubility ([4]; aqueous with cosolvent or surfactant or cyclodextrin, 50% Dimethyl sulfoxide in water, solid form: monohydrate): 1020 µg/mL
- solubility ([4]; aqueous with cosolvent or surfactant or cyclodextrin, 75% Dimethyl sulfoxide in water, solid form: monohydrate): 8450 µg/mL
- solubility ([4]; organic solvent or mixture, Acetonitrile, solid form: monohydrate (extra peak observed)): 127000 µg/mL
- solubility ([4]; organic solvent or mixture, Ethanol, solid form: monohydrate): 29700 µg/mL
- solubility ([4]; organic solvent or mixture, Ethyl Acetate, solid form: monohydrate): 20100 µg/mL
- solubility ([4]; organic solvent or mixture, Isopropanol, solid form: monohydrate): 8800 µg/mL
- solubility ([4]; organic solvent or mixture, Methanol, solid form: monohydrate): 53900 µg/mL
- solubility ([4]; organic solvent or mixture, Methyl Ethyl Ketone, solid form: monohydrate + trace acetone solvate): 45800 µg/mL
- solubility ([4]; organic solvent or mixture, Toluene, solid form: monohydrate): 1900 µg/mL
- chemical degradation ([5]; 1×ICH dose for UV and visible light, amber glass vials): no chemical degradation
- Area % (215 nm), peak No MS signal, RRT 0.80 ([5]; UV (200 W × h/m^2), Amber vial): <0.01 Area %
- Area % (215 nm), peak m/z 390, RRT 0.84 ([5]; UV (200 W × h/m^2), Amber vial): 0.06 Area %
- Area % (215 nm), peak m/z 520 [M + Na]^+, RRT 0.83 ([5]; UV (200 W × h/m^2), Amber vial): <0.01 Area %
- Area % (215 nm), peak m/z 581, RRT 0.82 ([5]; UV (200 W × h/m^2), Amber vial): <0.01 Area %
- Area % (215 nm), peak m/z 638, RRT 1.16 ([5]; UV (200 W × h/m^2), Amber vial): 0.05 Area %
- Area % (215 nm), peak monohydrate, RRT 1.00 ([5]; UV (200 W × h/m^2), Amber vial): 99.89 Area %
- Total Impurities, Area % (215 nm) ([5]; UV (200 W × h/m^2), Amber vial): 0.11 Area %
- Area % (215 nm), peak No MS signal, RRT 0.80 ([5]; UV (200 W × h/m^2), Clear vial): 0.02 Area %
- Area % (215 nm), peak m/z 390, RRT 0.84 ([5]; UV (200 W × h/m^2), Clear vial): 0.19 Area %
- Area % (215 nm), peak m/z 520 [M + Na]^+, RRT 0.83 ([5]; UV (200 W × h/m^2), Clear vial): 0.06 Area %
- Area % (215 nm), peak m/z 581, RRT 0.82 ([5]; UV (200 W × h/m^2), Clear vial): 0.05 Area %
- Area % (215 nm), peak m/z 638, RRT 1.16 ([5]; UV (200 W × h/m^2), Clear vial): 0.04 Area %
- Area % (215 nm), peak monohydrate, RRT 1.00 ([5]; UV (200 W × h/m^2), Clear vial): 99.64 Area %
- Total Impurities, Area % (215 nm) ([5]; UV (200 W × h/m^2), Clear vial): 0.36 Area %
- degradation ([5]; UV light): 0.4%
- Area % (215 nm), peak No MS signal, RRT 0.80 [5, 7]: <0.01 Area %
- Area % (215 nm), peak m/z 390, RRT 0.84 [5, 7]: 0.05 Area %
- Area % (215 nm), peak m/z 520 [M + Na]^+, RRT 0.83 [5, 7]: <0.01 Area %
- Area % (215 nm), peak m/z 581, RRT 0.82 [5, 7]: <0.01 Area %
- Area % (215 nm), peak m/z 638, RRT 1.16 [5, 7]: 0.05 Area %
- Area % (215 nm), peak monohydrate, RRT 1.00 [5, 7]: 99.89 Area %
- Total Impurities, Area % (215 nm) [5, 7]: 0.11 Area %
- Area % (215 nm), peak No MS signal, RRT 0.80 [5, 8]: <0.01 Area %
- Area % (215 nm), peak m/z 390, RRT 0.84 [5, 8]: 0.13 Area %
- Area % (215 nm), peak m/z 520 [M + Na]^+, RRT 0.83 [5, 8]: <0.01 Area %
- Area % (215 nm), peak m/z 581, RRT 0.82 [5, 8]: <0.01 Area %
- Area % (215 nm), peak m/z 638, RRT 1.16 [5, 8]: 0.04 Area %
- Area % (215 nm), peak monohydrate, RRT 1.00 [5, 8]: 99.83 Area %
- Total Impurities, Area % (215 nm) [5, 8]: 0.17 Area %
- degradation ([5]; visible light): 0.2%
- changes in solid state properties ([6]; 25° C./60% RH, 40° C./75% RH and 60° C./ambient RH for 12 weeks): no changes in solid state properties were observed
- Area % (215 nm), peak 2, RRT 1.09 ([6]; Initial): <0.1 Area %
- Area % (215 nm), peak 3, RRT 1.25 ([6]; Initial): <0.1 Area %
- Area % (215 nm), peak 4, RRT 1.53 ([6]; Initial): <0.1 Area %
- Area % (215 nm), peak monohydrate, RRT 1.00 ([6]; Initial): 100.0 Area %
- Total Impurities, Area % (215 nm) ([6]; Initial): <0.1 Area %
- Area % (215 nm), peak 2, RRT 1.09 ([6]; Week 2, 25/60): 0.27 Area %
